In patent US9029322B2, “Compounds for enhancing p21 expression and methods of use thereof” (Cornell University, priority 2007, dated 2015):

How the values were obtained:
[1] = system: arylhydrocarbon receptor (AHR); assay: Microarray gene analysis on spinal cord tissue RNA after intraperitoneal dosing; type: in vivo, rats
Description: Based on available dosing data, rats were dosed with 1, 5, 10, 15 or 30 mg/kg ciclopirox (intraperiotoneal; 3 animals per concentration). Spinal cord, liver and skeletal muscle tissue was harvested 6-hours after drug delivery. Real-time rt-PCR was performed on RNA extracted from tissues to examine the expression of p21waf1/cip1, arginase-1, and VEGF in order to determine what might be the most efficacious dose.
Microarray gene analysis was also performed on spinal cord tissue RNA to determine gene expression changes that correlate with treatment and dose in an unbiased manner.

[2] = system: contusion injury at the level of T-8; assay: Spinal cord contusion injury, single injection after injury; type: in vivo, rats
[3] = system: mouse or human p21 promoter; assay: p21-luciferase reporter screen in stably transfected HT22 cells; type: cell-based; details: HT22 lines stably expressing p21-luciferase; positive control
Description: To identify novel activators of p21, fragments of the mouse or human p21 promoter were subcloned into the pGL3 basic promoter-reporter construct (see promoter sequence information). The resultant p21-luciferase reporter plasmids were each then stably transfected into a mouse hippocampal cell line, HT22. […] Drugs were added to cells stably expressing p21-luciferase in a 96 well format. The HDAC inhibitor trichostatin A was used as a positive control. After 12 hours of drug treatment, the cells were lysed and luciferase activity was measured using a desktop luminometer. Cell viability was monitored in parallel, so that agents that induce toxicity can quickly be eliminated. Secondary screens including real time PCR or Western blots of p21 were monitored in primary neurons.

| SMILES | AHR gene expression change in spinal cord (microarray) ([1]; rats, 1, 5, 10, 15 or 30 mg/kg intraperitoneal, tissue harvested 6 hours after drug delivery) | induction of transcription in the spinal cord ([1]; rats, intraperitoneal, in vivo) | blood brain barrier penetration ([1]; rats, intraperitoneal, inferred from spinal cord gene expression changes) | protection (lesion volume) ([2]; single 30 mg/kg intraperitoneal injection 30 minutes after contusion injury at T-8) | effect on behavior (functional improvement) ([2]; single injection after injury) | p21-luciferase response [3] |
| --- | --- | --- | --- | --- | --- | --- |
| Cc1cc(C2CCCCC2)n(O)c(=O)c1 [ciclopirox] | dose-dependent ciclopirox-regulated gene | could induce transcription in the spinal cord | could penetrate the blood brain barrier | significant protection (reduced lesion volume) | little functional improvement |  |
| CC(/C=C/C(=O)NO)=C\[C@@H](C)C(=O)c1ccc(N(C)C)cc1 [trichostatin A] |  |  |  |  |  | predicted increases in p21-luciferase |
